According to patent publication US7772252B2, “Heterocyclic substituted carbonyl derivatives and their use as dopamine D3 receptor ligands” (Aventis Pharmaceuticals Inc., priority 2001, dated 2010):

Molecular target: T1, cloned human dopamine D3 receptors (Homo sapiens, UniProt P35462)
T1 construct: expressed in transfected cells; membrane homogenate
Assay: [N-Methyl-3H]Spiroperidol binding to cloned human dopamine D3 receptors
Conditions: D3 Ki (nM)
In short: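 Stably transfected CHO cells expressing cloned human D3 receptor were used as membranes homogenized in 10% DMSO. Ligand was [N-methyl-3H]spiroperidol displacement.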

T1 sequence (P35462 whole entry): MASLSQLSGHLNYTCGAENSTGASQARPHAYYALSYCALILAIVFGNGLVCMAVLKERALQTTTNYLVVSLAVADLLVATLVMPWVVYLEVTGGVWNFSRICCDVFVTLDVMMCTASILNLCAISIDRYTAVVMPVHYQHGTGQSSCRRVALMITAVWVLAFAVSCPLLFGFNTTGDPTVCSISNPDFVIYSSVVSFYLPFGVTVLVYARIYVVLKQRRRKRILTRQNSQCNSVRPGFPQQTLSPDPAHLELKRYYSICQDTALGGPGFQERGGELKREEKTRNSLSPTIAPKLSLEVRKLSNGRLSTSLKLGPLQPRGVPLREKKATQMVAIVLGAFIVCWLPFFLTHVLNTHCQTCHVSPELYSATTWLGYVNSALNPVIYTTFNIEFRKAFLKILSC

In the case of `O=C([C@@H]1C[C@H]1CN1CCC(c2noc3ccsc23)CC1)N1CCC2(CC1)OCCO2` [compound 829466], the Ki is reported as 24.8 nM.

Same assay, conditions: read-out: D3 Ki

Point of comparison: `O=C(NCCCn1ccnc1)[C@@H]1C[C@H]1CN1CCC(c2noc3ccsc23)CC1` [compound 829596], Ki 4.41 nM. Against it:
- Cn1nc(C2CCN(C[C@@H]3C[C@H]3C(=O)N3CCC[C@@H](Cn4ccnc4)C3)CC2)c2ccc(C(F)(F)F)cc21 [A002437353, (3S-Imidazol-1-ylmethyl-piperidin-1-yl)-{2R-[4-(1-methyl-6-trifluoromethyl-1H-indazol-3-yl)-piperidin-1-ylmethyl]-1R-cyclopropyl}-methanone] — 4.7-fold lower, 0.937 nM
- Cc1ccc2c(c1)c(C1CCN(C[C@@H]3C[C@H]3C(=O)N3CCC[C@@H](Cn4ccnc4)C3)CC1)nn2C [A002437354] — 4.3-fold lower, 1.03 nM
- CCC(C)OC(=O)n1cc(C2CCN(C[C@@H]3C[C@H]3C(=O)N3CCC[C@@H](Cn4ccnc4)C3)CC2)c2ccc(C(F)(F)F)cc21 (some centres unmarked) [A002437355] — 2.4-fold lower, 1.87 nM
- COc1cccc2c(C3CCN(C[C@@H]4C[C@H]4C(=O)N4CCC[C@@H](Cn5ccnc5)C4)CC3)noc12 [A002437359, (3S-Imidazol-1-ylmethyl-piperidin-1-yl)-{2R-[4-(7-methoxy-benzo[d]isoxazol-3-yl)-piperidin-1-ylmethyl]-1R-cyclopropyl}-methanone] — 8.2-fold lower, 0.541 nM
- O=C([C@@H]1C[C@H]1CN1CCC(c2noc3c(C(F)(F)F)cccc23)CC1)N1CCC[C@@H](Cn2ccnc2)C1 [A002437360, (3S-Imidazol-1-ylmethyl-piperidin-1-yl)-{2R-[4-(7-trifluoromethyl-benzo[d]isoxazol-3-yl)-piperidin-1-ylmethyl]-1R-cyclopropyl}-methanone] — 18-fold lower, 0.239 nM
- CN1CCN(CCCNC(=O)[C@@H]2C[C@H]2CN2CCC(c3csc4cc(C(F)(F)F)ccc34)CC2)CC1 [A002437517] — 2.4-fold higher, 10.5 nM
- O=C([C@@H]1C[C@H]1CN1CCN(c2csc3ncccc23)CC1)N1CCC[C@@H](Cn2ccnc2)C1 [A002437802] — 18-fold lower, 0.251 nM
- O=C([C@@H]1C[C@H]1CN1CCN(c2csc3cc(C(F)(F)F)ccc23)CC1)N1CCC[C@H](CO)C1 [A002438636] — 2.9-fold higher, 13 nM
- O=C([C@@H]1C[C@H]1CN1CCN(c2csc3cc(C(F)(F)F)ccc23)CC1)N1CCC[C@@H](CO)C1 [A002438637] — 4.8-fold higher, 21.2 nM
- O=C([C@@H]1C[C@H]1CN1CCN(c2csc3cc(C(F)(F)F)ccc23)CC1)N1CCC[C@H](CN2CCCCC2)C1 [A002438638] — within 1.5-fold, 3.28 nM
- CN1CCN(CCCNC(=O)[C@@H]2C[C@H]2CN2CCC(c3noc4c(C(F)(F)F)cccc34)CC2)CC1 [A002438639] — 22-fold higher, 97.3 nM
- CN1CCN(CCCNC(=O)[C@@H]2C[C@H]2CN2CCC(c3nn(C)c4ccsc34)CC2)CC1 [A002438640] — 24-fold higher, 104 nM
- Cn1nc(C2CCN(C[C@@H]3C[C@H]3C(=O)NCC3CCN(C(=O)OC(C)(C)C)CC3)CC2)c2sccc21 [A002438641] — 14-fold higher, 62.8 nM
- O=C([C@@H]1C[C@H]1CN1CCN(c2nc3cccc4c3n2CCC4)CC1)N1CCC[C@@H](Cn2ccnc2)C1 [A002438663] — 3.2-fold lower, 1.37 nM
- CN1CCN(CCCNC(=O)[C@@H]2C[C@H]2CN2CCC(c3nsc4cc(Br)ccc34)CC2)CC1 [A002438664] — within 1.5-fold, 6.49 nM
- CN1C2CCC1CC(NC(=O)[C@@H]1C[C@H]1CN1CCN(c3csc4cc(C(F)(F)F)ccc34)CC1)C2 (some centres unmarked) [A002439099] — within 1.5-fold, 4.91 nM
- CN1CCN(CCCNC(=O)[C@@H]2C[C@H]2CN2CCC(c3nn(C)c4c(C(F)(F)F)cccc34)CC2)CC1 [A002439259] — 8.8-fold higher, 39 nM
- Cn1nc(C2CCN(C[C@@H]3C[C@H]3C(=O)N3CCC[C@@H](Cn4ccnc4)C3)CC2)c2cccc(C(F)(F)F)c21 [A002439260] — 15-fold lower, 0.303 nM
- CC(C)(C)OC(=O)N1CCC(CNC(=O)[C@@H]2C[C@H]2CN2CCC(c3nn(-c4ccccc4)c4ccsc34)CC2)CC1 [A002439262] — 6.4-fold higher, 28.3 nM
- CN1CCN(CCCNC(=O)[C@@H]2C[C@H]2CN2CCC(c3nn(-c4ccccc4)c4ccsc34)CC2)CC1 [A002439263] — 6.9-fold higher, 30.6 nM
- CC(C)(C)OC(=O)N1CCC(CNC(=O)[C@@H]2C[C@H]2CN2CCC(c3nn(CC(F)(F)F)c4ccsc34)CC2)CC1 [A002439266] — 15-fold higher, 66 nM
- Cn1nc(C2CCN(C[C@@H]3C[C@H]3C(=O)NCC3CCNCC3)CC2)c2cccc(C(F)(F)F)c21 [A002440433A] — 41-fold higher, 180 nM
- Cn1nc(C2CCN(C[C@@H]3C[C@H]3C(=O)NCC3CCNCC3)CC2)c2sccc21 [A002440434A] — 100-fold higher, 462 nM
- O=C(NCC1CCNCC1)[C@@H]1C[C@H]1CN1CCC(c2nn(CC(F)(F)F)c3ccsc23)CC1 [A002440435A] — 69-fold higher, 305 nM
- O=C(NCC1CCNCC1)[C@@H]1C[C@H]1CN1CCC(c2nn(-c3ccccc3)c3ccsc23)CC1 [A002440436A] — 2.6-fold higher, 11.4 nM
- O=C(NCC1CCNCC1)[C@@H]1C[C@H]1CN1CCC(c2noc3c(C(F)(F)F)cccc23)CC1 [A002440437A] — 9.3-fold higher, 41.2 nM
- O=C([C@@H]1C[C@H]1CN1CCC(c2csc3cc(C(F)(F)F)ccc23)CC1)N1CCC[C@@H](Cn2ccnc2)C1 [A002609935, (3S-Imidazol-1-ylmethyl-piperidin-1-yl)-{2R-[4-(6-trifluoromethyl-benzo[b]thiophen-3-yl)-piperidin-1-ylmethyl]-1R-cyclopropyl}-methanone] — 31-fold lower, 0.142 nM
- O=C([C@@H]1C[C@H]1CN1CCN(c2csc3cc(F)ccc23)CC1)N1CCC(O)CC1 [compound 828716] — 1.9-fold lower, 2.38 nM
- O=C(NC1CC1)[C@@H]1C[C@H]1CN1CCC(c2noc3ccsc23)CC1 [compound 829460] — 36-fold higher, 158 nM
- CC1(C)COCN1C(=O)[C@@H]1C[C@H]1CN1CCC(c2noc3ccsc23)CC1 [compound 829464] — 5.1-fold higher, 22.4 nM
- O=C([C@@H]1C[C@H]1CN1CCC(c2noc3ccsc23)CC1)N1CCN(c2ccc(F)cc2)CC1 [compound 829465] — 18-fold higher, 80.3 nM
- O=C([C@@H]1C[C@H]1CN1CCC(c2noc3ccsc23)CC1)N1CCN(C/C=C/c2ccccc2)CC1 [compound 829467] — 2-fold higher, 9.01 nM
- CC1CCC(NC(=O)C2CC2CN2C3CCC2CC(c2n[nH]c4ccccc24)C3)CC1 (centres unmarked) [compound 830115] — 10-fold higher, 45.3 nM
- CCC1CCC(NC(=O)C2CC2CN2C3CCC2CC(c2n[nH]c4cc(F)ccc24)C3)CC1 (centres unmarked) [compound 830130] — 1.5-fold higher, 6.68 nM
- O=C([C@@H]1C[C@H]1CN1CCC(c2noc3ccsc23)CC1)N1CCC(O)CC1 [compound 830250] — 11-fold higher, 48.6 nM
- O=C(N[C@H]1CC[C@H](O)CC1)[C@@H]1C[C@H]1CN1CCC(c2noc3ccsc23)CC1 [compound 830251] — 2.6-fold higher, 11.4 nM
- O=C([C@@H]1C[C@H]1CN1CCC(c2noc3ccsc23)CC1)N1CCN(c2ccccn2)CC1 [compound 830252] — 25-fold higher, 110 nM
- O=C([C@@H](O)CCN1CCC(c2noc3ccsc23)CC1)N1CCCCC1 [compound 830557] — 22-fold higher, 97.4 nM
- O=C([C@H](O)CCN1CCC(c2noc3ccsc23)CC1)N1CCCCC1 [compound 830558] — 7.8-fold higher, 34.2 nM
- O=C(NC1CCCCC1)[C@H](O)CCN1CCC(c2noc3ccsc23)CC1 [compound 830573] — 120-fold higher, 547 nM
- O=C(NCCCc1ccccc1)[C@@H]1C[C@H]1CN1CCC(c2noc3ccsc23)CC1 [compound 830828] — 1.9-fold higher, 8.57 nM
- O=C(NCCc1ccccc1)[C@@H]1C[C@H]1CN1CCC(c2noc3ccsc23)CC1 [compound 830829] — within 1.5-fold, 5.3 nM
- O=C(NCCc1c[nH]c2ccccc12)[C@@H]1C[C@H]1CN1CCC(c2noc3ccsc23)CC1 [compound 830830] — 1.7-fold lower, 2.58 nM
- O=C(NCCc1c[nH]c2cc(F)ccc12)[C@@H]1C[C@H]1CN1CCC(c2noc3ccsc23)CC1 [compound 830831] — within 1.5-fold, 3.19 nM
- O=C(NCCCN1CCCC1=O)[C@@H]1C[C@H]1CN1CCC(c2noc3ccsc23)CC1 [compound 830832] — 15-fold higher, 67.7 nM
- O=C(NCCCN1CCCCC1)[C@@H]1C[C@H]1CN1CCC(c2noc3ccsc23)CC1 [compound 831045] — 76-fold higher, 335 nM
- O=C(NCCCCc1ccccc1)[C@@H]1C[C@H]1CN1CCC(c2noc3ccsc23)CC1 [compound 831047] — 1.5-fold lower, 2.87 nM
- C[C@H]1CC[C@H](NC(=O)[C@H]2C[C@@H]2CN2CCN(c3noc4ccsc34)CC2)CC1 [compound 831082] — 8.7-fold higher, 38.2 nM
- C[C@H]1CC[C@H](NC(=O)[C@H]2C[C@@H]2CN2CCC(c3cc4ccccc4s3)CC2)CC1 [compound 831147] — 9.3-fold higher, 40.8 nM
- O=C(NCCc1c[nH]cn1)[C@@H]1C[C@H]1CN1CCC(c2noc3ccsc23)CC1 [compound 831192] — within 1.5-fold, 3.44 nM
- O=C([C@@H]1C[C@H]1CN1CCC(c2noc3ccsc23)CC1)N1CCC(c2ccccc2)CC1 [compound 831193] — 5.4-fold higher, 23.8 nM
- O=C([C@@H]1C[C@H]1CN1CCC(c2noc3ccsc23)CC1)N1CCC(Cc2ccccc2)CC1 [compound 831194] — within 1.5-fold, 5.06 nM
- O=C(NCCCc1cccnc1)[C@@H]1C[C@H]1CN1CCC(c2noc3ccsc23)CC1 [compound 831195] — 2.4-fold lower, 1.84 nM
- COc1cc2c(cc1OC)CN(C(=O)[C@@H]1C[C@H]1CN1CCC(c3noc4ccsc34)CC1)CC2 [compound 831196] — 1.8-fold higher, 7.81 nM
- O=C(NCCCn1cnc(Cl)c1Cl)[C@@H]1C[C@H]1CN1CCC(c2noc3ccsc23)CC1 [compound 831198] — 2.5-fold lower, 1.76 nM

Same assay, conditions: read-out: d3Ki

Point of comparison: `CCN(C(=O)CCCN1CCCN(c2csc3cc(F)ccc23)CC1)C1CCCCC1` [compound 826829], Ki 1.5 nM. Against it:
- CN(C(=O)CCCCN1CCN(c2csc3cc(F)ccc23)CC1)c1ccc(C(C)(C)C)cc1 [compound 822140] — 75-fold higher, 113 nM
- C[C@H]1CC[C@H](NC(=O)CCCN2CCN(c3csc4cc(C(F)(F)F)ccc34)CC2)CC1 [compound 826804] — 45-fold higher, 67.4 nM
- CCOC(=O)[C@H]1CC[C@H](NC(=O)CCCN2CCN(c3csc4cc(C(F)(F)F)ccc34)CC2)CC1 [compound 826805] — 9.5-fold higher, 14.2 nM
- CC[C@H]1CC[C@H](NC(=O)CCCN2CCN(c3csc4cc(C(F)(F)F)ccc34)CC2)CC1 [compound 826806] — 27-fold higher, 40 nM
- CCN(C(=O)CCCN1CCN(c2csc3cc(C(F)(F)F)ccc23)CC1)C1CCCCC1 [compound 826809] — 47-fold higher, 71 nM
- CC1(C)CCCN(C(=O)CCCN2CCN(c3csc4cc(C(F)(F)F)ccc34)CC2)C1 [compound 826817] — 13-fold higher, 20 nM
- O=C(CCCN1CCN(c2csc3cc(F)ccc23)CC1CCCc1ccccc1)N(CCO)C1CCCCC1 (centres unmarked) [compound 827111] — 9.5-fold higher, 14.3 nM
